Data published in patent publication US8927532B2, “Therapeutic agent and diagnostic agent for mitochondrial dysfunction brain diseases” (SBI Pharmaceuticals Co., Ltd., priority 2007, dated 2015).

System: middle cerebral artery-occluded model rats
Assay: Fluorescence observation of brain disease site in cerebral infarction model rats
Assay type: in vivo, rat
Details: 100 mg/kg i.p., 4 hours after administration
Experimental: After 6 hours, 12 hours, 24 hours, and 42 hours from the preparation of middle cerebral artery-occluded model rats, δ-aminolevulinic acid hydrochloride was dissolved in physiological saline and intraperitoneally administered to the individual model rats in an amount of 100 mg/kg-body weight of rat. […] Moreover, it was confirmed that the red light site was in a cerebral infarction state.

In the case of Cl.NCC(=O)CCC(=O)O [δ-aminolevulinic acid hydrochloride], the “metabolism to protoporphyrin IX in the brain” value is reported as “metabolized and converted into protoporphyrin IX”.
